Positions count from the first letter of the chain named. Values joined by “and” are separate entries in the source; they are usually repeats but may differ in a detail not shown here. Identical values can stand only once. Values belong to the molecule of their own block, whether it stands above or below them.
Key:
p85α / tRXRα interaction = experiment: coIP, p85α with tRXRα; type: cell-based; conditions: HEK293T cells; TNFα (10 ng ml^−1) for 1 h; coIP anti-Myc
Experimental: (§4) For coIP assay[29], HEK293T cells grown in 10 cm dishes were transfected with various plasmids. Cells were lysed in 1 ml of lysis buffer (20 mM Tris (pH 7.5), 150 mM NaCl, 1% Triton X-100, 1 mM EDTA, 30 mM NaF, 2 mM sodium pyrophosphate) with a cocktail of proteinase inhibitors (Roche). Lysates were incubated with the appropriate antibody for 12 h at 4 °C and subsequently incubated with protein A-Sepharose beads for 1 h. The immunoprecipitates were collected and washed three times with lysis buffer. The protein–antibody complexes recovered on beads were subjected to immunoblotting using appropriate antibodies after separation by SDS-PAGE. Input represents 5% of cell lysates used for coIP assays.

[1] = tested on: p85α / tRXRα/R316E interaction; experiment: coIP, p85α with tRXRα/R316E; type: cell-based; conditions: HEK293T cells; TNFα (10 ng ml^−1) or 9-cis-RA (10^−7 M) for 1 h; coIP anti-Myc
Experimental: as §4

RXRα [2] = experiment: Subcellular localization of RXRα, immunostaining; type: cell-based; conditions: MCF-7 cells; TNFα (10 ng ml^−1) for 30 min; confocal microscopy
Experimental: (§1) Cells mounted on glass slides or tumour tissue frozen sections (5-μm-thick) were washed with PBS and fixed in 4% paraformaldehyde (PFA) for 15 min and permeabilized with PBS containing 0.1% Triton X-100 for 15 min. Fixed cells or tumour tissues were blocked with 5 mg ml^−1 BSA in PBS for 30 min at room temperature, followed with incubation with primary antibodies for 3 h and secondary antibodies at room temperature for 1 h and co-stained with 4′6′-diamidino-2-phenylindole (DAPI) to visualize nuclei. The images were taken under an LSM-510 confocal laser scanning microscope system (Carl Zeiss).

tRXRα = experiment: Subcellular localization of tRXRα, immunostaining; type: cell-based; conditions: MCF-7 cells cotransfected with p85α; TNFα (10 ng ml^−1) for 30 min; confocal microscopy
Experimental: as §1

tRXRα/R316E [3] = experiment: Subcellular localization of tRXRα/R316E, immunostaining; type: cell-based; conditions: HEK293T cells; TNFα (10 ng ml^−1) for 30 min; confocal microscopy
Experimental: as §1

Myc-RXRα-LBD (human) = experiment: cross-linking; cells (HepG2, HEK293T, MCF-7) transfected for 24 h, treated with 9-cis-RA (10^-7 M) and/or K-80003 (5 x 10^-6 M) for 6 h; lysates or fractions incubated with 1 mM BS3, SDS-PAGE and western blotting
[4] = tested on: p85α-ΔiSH2 / tRXRα interaction; experiment: p85α-ΔiSH2 interaction with tRXRα; type: cell-based
Experimental: (§2) Cell lysates were then prepared and incubated with bis[sulfosuccinimidyl] suberate (BS3, Pierce) dissolved in dimethyl sulfoxide to a final concentration of 1 mM. The reactions were stopped with protein gel loading buffer. Samples were resolved by SDS/PAGE in 8% acrylamide gels and protein bands were visualized by western blotting.

[5] = tested on: p85α-BCR / tRXRα interaction; experiment: coIP, p85α-BCR with tRXRα; type: cell-based; conditions: 9-cis-RA (10^−7 M), one of two similar experiments
Experimental: as §4

RXRα [6] = tested on: RXRα; design: method as in PMID 10970886, PMID 9811539; conditions: cited from earlier work
Text: In addition to acting as heterodimeric partners of some nuclear receptors, RXRα can form homodimers[18] that trigger specific signalling pathways. A unique property of RXRα is an auto-repressive mechanism involving homotetramerization, in which a ‘dimer-of-dimers’ pack in a bottom-to-bottom manner, with H12 from each monomer invading (and invaded by) a neighbouring domain across the tetramer interface. This pairwise ‘exchange of arms’ enables each monomer to bind to and occlude the coregulator-binding groove of its neighbour. Some molecules hav ...

[7] = tested on: p85α-BCR / RXRα-LBD interaction; experiment: coIP, p85α-BCR with RXRα-LBD; type: cell-based; conditions: 9-cis-RA (10^−7 M), one of two similar experiments
Experimental: (§3) For coIP assay, HEK293T cells grown in 10 cm dishes were transfected with various plasmids. Cells were lysed in 1 ml of lysis buffer (20 mM Tris (pH 7.5), 150 mM NaCl, 1% Triton X-100, 1 mM EDTA, 30 mM NaF, 2 mM sodium pyrophosphate) with a cocktail of proteinase inhibitors (Roche). Lysates were incubated with the appropriate antibody for 12 h at 4 °C and subsequently incubated with protein A-Sepharose beads for 1 h. The immunoprecipitates were collected and washed three times with lysis buffer. The protein–antibody complexes recovered on beads were subjected to immunoblotting using appropriate antibodies after separation by SDS-PAGE. Input represents 5% of cell lysates used for coIP assays.

[8] = tested on: p85α-BCR / RXRα-LBD/W305Q interaction; conditions: HEK293T cells; with or without 9-cis-RA (10^−7 M)
Experimental: as §3

RXRα-LBD/R316E = experiment: Non-denaturing gel electrophoresis, R316E mutant; type: biochemical, human; conditions: 9-cis-RA (0.5 μM) or K-80003 (20 μM), 3 h at 4 °C
Experimental: The human RXRα LBD (residues Thr223 to Thr462) cloned as an N-terminal histidine-tagged fusion protein in pET15b expression vector was expressed in Escherichia coli BL21 strain (Stratagene). After sonication, cell extract was incubated with the His60 Ni Superflow resin, and His-tagged RXRα-LBD-resin complexes were washed, eluted and concentrated to 5 mg ml^−1 for subsequent trails. For crystallization experiment, bovine thrombin (Sigma) was used to cleave the His tag from the purified His-tagged RXRα-LBD. The resulting His tag was removed on the Resource-Q column (GE) using 0.1–1 M NaCl gradient and the Tris-Cl pH 8 buffer. RXRα-LDB was further purified using gel filtration on a Superdex 200 2660 column (GE) pre-equilibrated with the 75 mM NaCl, 20 mM Tris-Cl buffer (pH 8).

tRXRα/F313A = experiment: BS3 crosslinking, tRXRα/F313A; type: cell-based; conditions: MCF-7 cells, 9-cis-RA (10^−7 M) or K-80003 (5 × 10^−6 M) for 6 h
Experimental: as §2

RXRα-LBD = experiment: BS3 crosslinking, transfected RXRα-LBD; type: cell-based; conditions: HepG2 cells; 9-cis-RA (10^−7 M) or K-80003 (5 × 10^−6 M) for 6 h; BS3 1 mM; western blotting
Experimental: as §2

[9] = tested on: RXRα-A/B / RXRα-LBD interaction; experiment: coIP, N/C interaction RXRα-A/B with RXRα-LBD; type: cell-based; conditions: HepG2 cells, coIP with anti-HA antibody; one of two similar experiments
[10] = tested on: p85α / tRXRα/F313A interaction; experiment: coIP, p85α with tRXRα/F313A; type: cell-based; conditions: HEK293T cells; 9-cis-RA (10^−7 M) for 1 h; coIP anti-Myc
Experimental: as §4

tRXRα/R316E [11] = experiment: BS3 crosslinking, tRXRα/R316E; type: cell-based; conditions: MCF-7 cells, 9-cis-RA (10^−7 M) or K-80003 (5 × 10^−6 M) for 6 h
Experimental: as §2

[12] = tested on: RXRα-A/B / RXRα-LBD/W305Q interaction; experiment: coIP, N/C interaction RXRα-A/B with RXRα-LBD/W305Q; type: cell-based; conditions: HEK293T cells; 9-cis-RA (10^−7 M)
Experimental: as §4

[13] = biological target: the molecule itself; experiment: crystal structure; RXRα-LBD (0.35 mM) cocrystallized with K-80003, 2.6 Å; tetramer (dimer of dimers) with six K-80003 bound
[14] = biological target: the molecule itself; experiment: native gel or EMSA; purified RXRα-LBD or mutant (0.2 μg/μl) incubated with DMSO, 9-cis-RA (0.5 μM) and/or K-80003 (20 μM) for 3 h at 4 °C; 8% non-denaturing PAGE, Coomassie staining
[15] = biological target: the molecule itself; experiment: cross-linking; cells (HepG2, HEK293T, MCF-7) transfected for 24 h, treated with 9-cis-RA (10^-7 M) and/or K-80003 (5 x 10^-6 M) for 6 h; lysates or fractions incubated with 1 mM BS3, SDS-PAGE and western blotting

Molecule: TNFα
interaction of tRXRα with full-length p85α (p85α / tRXRα interaction): tRXRα interacted with the full-length p85α in the presence of TNFα
interaction of tRXRα/R316E with p85α [1]: could not bind to p85α either in the absence or presence of TNFα or 9-cis-RA
effect on nuclear localization of RXRα (RXRα [2]): no effect on the nuclear localization of RXRα
tRXRα found in the cytoplasm of cells (tRXRα): > 65%
colocalization of tRXRα/R316E with p85α (tRXRα/R316E [3]): lack of colocalization of the tRXRα/R316E mutant with p85α in the absence or presence of TNFα

stoichiometry N (Myc-RXRα-LBD (human)): 2 and 4
Molecule: Myc-RXRα-LBD (domain or fragment)

Molecule: O=C(CCCCCCC(=O)ON1C(=O)CC(S(=O)(=O)O)C1=O)ON1C(=O)CC(S(=O)(=O)O)C1=O (stereo not shown) [BS3, bis[sulfosuccinimidyl] suberate]
9-cis-RA-induced tRXRα interaction with p85α-ΔiSH2 ([4]; HepG2 cells, K-80003 and/or 9-cis-RA, then BS3 crosslinking, western blotting): potently inhibited

Molecule: CC1=C(/C=C/C(C)=C\C=C\C(C)=C\C(=O)O)C(C)(C)CCC1 [9-cis-RA, 9-cis-retinoic acid]
effect on p85α-BCR interaction with tRXRα [5]: enhancing effect of 9-cis-RA on p85α-BCR interaction
effect on homotetramers (RXRα [6]): dissociation of homotetramers into homodimers
effect on p85α-BCR interaction with RXRα-LBD [7]: enhancing effect of 9-cis-RA on p85α-BCR interaction
binding of RXRα-LBD/W305Q with p85α-BCR [8]: impaired the binding of RXRα-LBD with p85α-BCR either in the presence or absence of 9-cis-RA
interaction of tRXRα/R316E with p85α [1]: could not bind to p85α either in the absence or presence of TNFα or 9-cis-RA
tRXRα interaction with p85α-ΔiSH2 with cotransfected RXRα-A/B ([4]; HEK293T cells, 9-cis-RA (10^−7 M) for 6 h, coIP anti-Myc): inhibited 9-cis-RA-induced interaction of tRXRα with p85α-ΔiSH2
effect on oligomeric state of RXRα-LBD/R316E (RXRα-LBD/R316E): exhibited mainly as a tetramer independent of the presence of either 9-cis-RA or K-80003
oligomeric state of tRXRα/F313A (tRXRα/F313A): strong tetrameric species of tRXRα/R316E but not tRXRα/F313A independent of the presence of 9-cis-RA or K-80003
crosslinked RXRα-LBD species (RXRα-LBD): only monomer and homodimer
effect on RXRα-A/B / RXRα-LBD interaction [9]: inhibited by 9-cis-RA in a dose-dependent manner
interaction of tRXRα/F313A with p85α [10]: constitutive and 9-cis-RA-independent interaction with p85α
oligomeric state of tRXRα/R316E (tRXRα/R316E [11]): strong tetrameric species of tRXRα/R316E but not tRXRα/F313A independent of the presence of 9-cis-RA or K-80003
effect on RXRα-A/B / RXRα-LBD/W305Q interaction [12]: could still bind to the RXRα-A/B protein in a 9-cis-RA sensitive manner similar to the wild-type RXRα-LBD

B1: RXRα-LBD (His tag cleaved, for crystallization) (domain or fragment, human, UniProt P19793 223-462, looked up)
chain: TSSANEDMPVERILEAELAVEPKTETYVEANMGLNPSSPNDPVTNICQAADKQLFTLVEWAKRIPHFSELPLDDQVILLRAGWNELLIASFSHRSIAVKDGILLATGLHVHRNSAHSAGVGAIFDRVLTELVSKMRDMQMDKTELGCLRAIVLFNPDSKGLSNPAEVEALREKVYASLEAYCKHKYPEQPGRFAKLLLRLPALRSIGLKCLEHLFFFKLIGDTPIDTFLMEMLEAPHQMT
stoichiometry N [13]: 4

B2: His-RXRα-LBD/R316E (domain or fragment, human, UniProt P19793 223-462, looked up)
chain: B1 chain with R94E
notes: source: bacteria expressed, purified
stoichiometry N [14]: 4

B3: His-RXRα-LBD (domain or fragment, human, UniProt P19793 223-462, looked up)
chain: B1 chain
stoichiometry N [14]: 2 and 4

B4: Myc-tRXRα (domain or fragment, human, UniProt P19793 81-462, looked up)
chain: TTPTLGFSTGSPQLSSPMNPVSSSEDIKPPLGLNGVLKVPAHPSGNMASFTKHICAICGDRSSGKHYGVYSCEGCKGFFKRTVRKDLTYTCRDNKDCLIDKRQRNRCQYCRYQKCLAMGMKREAVQEERQRGKDRNENEVESTSSANEDMPVERILEAELAVEPKTETYVEANMGLNPSSPNDPVTNICQAADKQLFTLVEWAKRIPHFSELPLDDQVILLRAGWNELLIASFSHRSIAVKDGILLATGLHVHRNSAHSAGVGAIFDRVLTELVSKMRDMQMDKTELGCLRAIVLFNPDSKGLSNPAEVEALREKVYASLEAYCKHKYPEQPGRFAKLLLRLPALRSIGLKCLEHLFFFKLIGDTPIDTFLMEMLEAPHQMT
notes: retinoid X receptor alpha lacking the N-terminal 80 amino acids (deletion of 60 plus an additional 20 amino acids); also called truncated RXRα; N-terminally-cleaved RXRα; source: HEK293T, HepG2, transfected, in lysate
stoichiometry N [15]: 4

B5: Myc-tRXRα/R316E (domain or fragment, human, UniProt P19793 81-462, looked up)
chain: B4 chain with R236E
notes: retinoid X receptor alpha lacking the N-terminal 80 amino acids; source: MCF-7, HEK293T, transfected, in lysate
stoichiometry N [15]: 4
